Test results from US20230127046A1, “G9a INHIBITOR” (RIKEN, priority 2019, published 2023).
pIC50: −log10 of the molar value. Like-named read-outs stand apart in the source and are kept apart here.

Target: T1, recombinant human G9a protein (Homo sapiens, UniProt Q96KQ7)
T1 construct: purchased BPS Bioscience Inc. #51001
T1 sequence (Q96KQ7 785-1210 limits assumed): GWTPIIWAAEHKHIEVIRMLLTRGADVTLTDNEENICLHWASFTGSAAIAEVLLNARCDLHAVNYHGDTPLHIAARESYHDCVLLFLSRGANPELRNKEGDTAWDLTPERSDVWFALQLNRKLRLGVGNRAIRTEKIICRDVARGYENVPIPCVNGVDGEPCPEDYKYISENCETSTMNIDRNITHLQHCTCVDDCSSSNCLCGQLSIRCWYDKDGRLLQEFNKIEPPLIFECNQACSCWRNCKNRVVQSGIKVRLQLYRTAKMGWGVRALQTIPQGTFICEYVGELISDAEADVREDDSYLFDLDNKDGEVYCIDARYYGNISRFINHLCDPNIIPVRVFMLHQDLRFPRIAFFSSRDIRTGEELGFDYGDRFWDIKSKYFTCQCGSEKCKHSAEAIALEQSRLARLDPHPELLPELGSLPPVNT
Assay: G9a inhibitory activity test (ALPHA)
Assay type: biochemical
Outline: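 Human G9a (0.05 to 0.1 nM) in Tris pH 9.0 buffer preincubated with compound 10 min, then biotinylated histone H3 (1-21) peptide and SAM mixed 1:1 from 500 nM and 150 μM solutions, 1 h at room temperature. H3K9me2 detected by AlphaLISA acceptor/streptavidin donor beads; IC50 from percent inhibition relative to no-compound and no-enzyme controls.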

[1] = biotinylated histone H3 peptide (1-21), SAM, read-out: Inhibitory activity (G9a IC50 value)
[2] = read-out: Inhibitory activity (G9a IC50)

Row | SMILES | pIC50 [1] | pIC50 [2]
1 | CCCCC(NC(=O)c1[nH]c2c(c1C)C(=O)CC(C)(C)C2)C(=O)Nc1cccc2ccccc12 (stereo not shown) [Example 1-31] | ≤ 6.70 | –
2 | Cc1c(C(=O)NC(CCC2CC2)C(=O)Nc2ccccn2)[nH]c2c1C(=O)CC(C)(C)C2 (stereo not shown) [Example 6-9] | – | ≤ 6.70
3 | COc1ccc(NC(=O)C(CCC2CC2)NC(=O)c2ccc(C3CCN(C)CC3)cc2)cn1 (stereo not shown) [Example 6-69] | – | ≤ 6.70
4 | CCCC[C@H](NC(=O)c1[nH]c2c(c1C)C(=O)CC(C)(C)C2)C(=O)N1CCc2c(OCCN3CCCC3)cccc21 [Example 6-103] | – | ≤ 6.70
5 | CCc1c(C(=O)N[C@@H](CCC2CC2)C(=O)Nc2ccc(C#N)cc2)[nH]c2c1C(=O)CC(C)(C)C2 [Example 15-3] | – | 6.70 to 7.30
6 | CCCCC(NC(=O)c1[nH]c2c(c1C)C(=O)CC(C)(C)C2)C(=O)NCc1ccc(CN2CCCCC2)cc1 (stereo not shown) [Example 18-9] | – | > 7.30
7 | CCCCC(NC(=O)c1[nH]c2c(c1C)C(=O)CC(C)(C)C2)C(=O)NCc1ccc(C(=O)N(C)C)cc1 (stereo not shown) [Example 20-2] | – | ≤ 6.70
8 | CCCC[C@H](NC(=O)c1[nH]c2c(c1C)C(=O)CC(C)(C)C2)c1nc2ccc(OCCCN3CCCCC3)cc2[nH]1 [Example 34-2] | – | 6.70 to 7.30
9 | CSCC[C@H](NC(=O)c1[nH]c2c(c1C)C(=O)CC(C)(C)C2)C(=O)Nc1ccccc1 [Example 6-90] | – | ≤ 6.70
10 | CCCCC(NC(=O)c1[nH]c2c(c1C)C(=O)CC(C)(C)C2)C(=O)Nc1ccc(OCCNC)nc1 (stereo not shown) [Example 24-1, 3,6,6-trimethyl-N-[1-[[6-[2-(methylamino)ethoxy]pyridin-3-yl]amino]-1-oxohexan-2-yl]-4-oxo-5,7-dihydro-1H-indole-2-carboxamide] | – | 6.70 to 7.30
11 | CCc1nc(C)ccc1NC(=O)C(CCC1CC1)NC(=O)c1[nH]c2c(c1C)C(=O)CC(C)(C)C2 (stereo not shown) [Example 1-75] | ≤ 6.70 | –
12 | CCCCC(NC(=O)c1[nH]c2c(c1C)C(=O)CC(C)(C)C2)C(=O)Nc1cccc(CN(CC)CC)c1 (stereo not shown) [Example 1-108] | > 7.30 | –
13 | Cc1c(C(=O)NC(CCC2CC2)C(=O)N2CCc3cc(CN4CCOCC4)ccc32)[nH]c2c1C(=O)CC(C)(C)C2 (stereo not shown) [Example 1-143] | – | ≤ 6.70
14 | Cc1c(C(=O)NC(CCC2CC2)c2nc3c(CN(C)C4CCN(C)CC4)cccc3n2C)[nH]c2c1C(=O)CC(C)(C)C2 (stereo not shown) [Example 31-7] | – | ≤ 6.70
15 | CCCCC(NC(=O)c1[nH]c2c(c1C)C(=O)CC(C)(C)C2)C(=O)Nc1ccc(N(C)C2CCN(C)CC2)nc1 (stereo not shown) [Example 1-20] | > 7.30 | –
16 | Cc1ccc(NC(=O)C(CCC2CC2)NC(=O)c2[nH]c3c(c2C)C(=O)CC(C)(C)C3)cc1 (stereo not shown) [Example 1-61] | 6.70 to 7.30 | –

Row | SMILES | pIC50 [1] | pIC50 [2]
17 | CCCC[C@H](NC(=O)c1[nH]c2c(c1C)C(=O)CC(C)(C)C2)C(=O)N[C@@H](CO)c1ccccc1 [Example 6-45] | – | 6.70 to 7.30
18 | COc1ccc(NC(=O)C(CCC2CC2)NC(=O)c2ccc(-c3ccncc3)cc2C)cn1 (stereo not shown) [Example 6-50] | – | ≤ 6.70
19 | CCCCC(NC(=O)c1[nH]c2c(c1C)C(=O)CC(C)(C)C2)C(=O)NCc1ccc(C#N)cc1 (stereo not shown) [Example 1-52] | ≤ 6.70 | –
20 | CCCCC(NC(=O)c1[nH]c2c(c1C)C(=O)CC(C)(C)C2)C(=O)NCc1ccc(CN)cc1 (stereo not shown) [Example 24-2] | – | > 7.30
21 | Cc1c(C(=O)NC(CCC2CC2)C(=O)NCc2ccc(CN(C)C)cc2)[nH]c2c1C(=O)CC(C)(C)C2 (stereo not shown) [Example 1-149] | – | > 7.30
22 | Cc1c(C(=O)NC(CCC2CC2)C(=O)NC2(c3ccc(C#N)cc3)CC2)[nH]c2c1C(=O)CC(C)(C)C2 (stereo not shown) [Example 1-69] | ≤ 6.70 | –
23 | CCc1ccncc1NC(=O)C(CCC1CC1)NC(=O)c1[nH]c2c(c1C)C(=O)CC(C)(C)C2 (stereo not shown) [Example 6-2] | – | > 7.30
24 | Cc1c(C(=O)NC(CCC2CC2)C(=O)Nc2cccc(CN(C)C)c2)[nH]c2c1C(=O)CC(C)(C)C2 (stereo not shown) [Example 1-137] | – | > 7.30
25 | CCCCC(NC(=O)c1[nH]c2c(c1C)C(=O)CC(C)(C)C2)C(=O)Nc1ccccc1C(F)F (stereo not shown) [Example 5-1, N-[1-[2-(difluoromethyl)anilino]-1-oxohexan-2-yl]-3,6,6-trimethyl-4-oxo-5,7-dihydro-1H-indole-2-carboxamide] | – | ≤ 6.70
26 | COc1ccc(NC(=O)C(CCC2CC2)NC(=O)c2nc(-c3ccccc3)sc2C)cn1 (stereo not shown) [Example 6-54] | – | ≤ 6.70
27 | CCCCC(NC(=O)c1cc2cc(OC)c(OC)cc2[nH]1)C(=O)Nc1ccc(OC2CCN(C)CC2)nc1 (stereo not shown) [Example 6-97] | – | ≤ 6.70
28 | COc1ccc(NC(=O)C(CCC2CC2)NC(=O)c2ccc(-n3ccc4cnccc43)cc2)cn1 (stereo not shown) [Example 6-58] | – | 6.70 to 7.30
29 | CCCCC(NC(=O)c1[nH]c2c(c1C)C(=O)CC(C)(C)C2)C(=O)Nc1cccc(-c2ccccn2)c1 (stereo not shown) [Example 1-105] | ≤ 6.70 | –
30 | COc1ccc(NC(=O)C(CCC2CC2)NC(=O)c2ccc(Nc3ccncc3)nc2)cn1 (stereo not shown) [Example 6-56] | – | ≤ 6.70
31 | CCCCC(NC(=O)c1[nH]c2c(c1C)C(=O)CC(C)(C)C2)C(=O)Nc1cccc(C)c1C (stereo not shown) [Example 1-25] | ≤ 6.70 | –
